Experimental data reported in patent US20240108598A1, “Danegaptide for Use in the Treatment or Prevention of a Kidney Disease” (CIANA THERAPEUTICS APS, priority 2021, published 2024).

Key:
[1] = target: T1, Cx43 hemichannels (Homo sapiens, UniProt P17302); experiment: Carboxyfluorescein dye uptake assay in primary hPTECs; format: cell-based; conditions: 48 h
T1 construct: host or cells: HK2 human kidney proximal tubule epithelial cell line
Protocol: In panel A, HK2 cells were cultured in low glucose (5 mM) with/without TGFβ1 (10 ng/ml)±danegaptide (50, 100 and 1000 nM) for 48 h and cell viability assessed. Results are presented as mean±SEM, n=3. […] Addition of danegaptide (50 or 100 nM) reduced dye uptake, returning fluorescence intensity to control levels. Intensity is expressed as percentage compared to low glucose control and is representative of 3 separate experiments. Data is presented as mean±SEM, n=3 with key significances indicated (**P<0.01, ***P<0.001); one-way ANOVA and Tukey's post-test).
HK2 and HPTEC cells were seeded onto fluorodishes (22 mm diameter) and cultured in low glucose DMEM/F12 (5 mmol/1) for 48 h. Following an overnight serum-starvation, cells were incubated with TGFβ1 (10 ng/ml)±danegaptide (100 nM) for 48 h. For subsequent steps, a balanced salt solution (BSS, pH7.0) was used, comprising of NaCl (137 mM), KCl (5.4 mM), MgSO4 (0.8 mM), Na2HPO4 (0.3 mM), KH2PO4 (0.4 mM), NaHCO3 (4.2 mM), HEPES (10 mM) and glucose (5 mM). […] ImageJ was used to quantify dye uptake, where a region of interest (ROI) was drawn around each cell (approx. 10-15 cells/dish) and mean pixel intensity measured. A background fluorescence value was subtracted from each ROI.

[2] = test system: primary hPTECs; experiment: Western blotting of extracellular matrix proteins; format: cell-based, human; conditions: 48 h
Protocol: Primary hPTECs were cultured in low (5 mM) glucose±TGFβ1 (10 ng/mL)±danegaptide (100 nM) for 48 h. In panel A, expression of the ECM proteins collagen I (Col1), collagen IV (Col4), fibronectin (Fibro), and Laminin (panel B) were assessed via western blotting. […] Danegaptide partially reversed the TGFβ1 evoked change in Integrin Linked Kinase 1 (ILK1; ▴▴▴P<0.001) but had negligible effect on Matrix Metalloproteinase 3 (MMP3). All bars correspond mean±SEM, (n=3) and representative blots are shown with expression normalised by re-probing for α-tubulin as a loading control.
To determine if danegaptide can negate TGFβ1-mediated changes in adherens and tight junction proteins, hPTECs were incubated with TGFβ1 (10 ng/mL)±danegaptide (100 nM) for 48 h and expression of candidate proteins assessed by Western blotting. Preparation of cytosolic protein from HK2 and HPTEC cells, their separation by SDS-gel electrophoresis and transfer onto Immobilon-FI PVDF membranes have been described previously (Price, G. W.; Chadjichristos, C. E.; Kavvadas, P.; Tang, S. C. W.; Yiu, W. H.; Green, C. R.; Potter, J. A.; Siamantouras, E.; Squires, P. E.; Hills, C. E. Blocking Connexin-43 mediated hemichannel activity protects against early tubular injury in experimental chronic kidney disease. Cell Commun. Signal. 2020, 18). Membranes were blocked using Odyssey blocking buffer (LI-COR), then probed overnight with antibodies against E-cadherin (1:1000), N-cadherin (1:1000), claudin-2 (1:500) and ZO-1 (1:1000), Col I (1:1000), Col IV (1:2000), Fibronectin (1:4000), Laminin (1:500), ILK1 (1:500), beta-catenin (1:2000), Vimentin (1:500), MMP3 (1:500). Bands were visualised using an OdysseyFC and semi-quantified using ImageStudio (v5.2, LI-COR). Additionally, transepithelial electrical resistance (TER) was measured as a functional measure of epithelial cell-cell coupling and paracellular permeability.
To examine the effect of danegaptide on TGFβ1-evoked changes in expression of ECM proteins, hPTEC cells were cultured in low (5 mM) glucose for 48 h, serum starved overnight and treated with TGFβ1 (10 ng/mL)±danegaptide (100 nM) for 48 h. Expression of the ECM proteins collagen I, collagen IV, fibronectin, Laminin, Integrin Linked Kinase 1, and Matrix Metalloproteinase 3 were assessed via western blotting.

[3] = test system: primary hPTECs; experiment: Inflammation antibody array, supernatant (Table 2); format: cell-based, human; conditions: hPTEC supernatant, 48 h
From the text: An inflammation antibody array was used to assess regulation of 31 candidate inflammatory proteins in supernatant from hPTEC cells treated with TGFβ1±danegaptide. Results are representative of 3 separate experiments and presented as mean±SEM, n=3 with key significances indicated (*P<0.05, **P<0.01, ***P<0.001; one-way ANOVA and Tukey's post-test).
A proteome profiler array (Human Cytokine Array Kit from R&D Systems, Oxfordshire, UK) was used, to determine if danegaptide negates TGFβ1-induced changes in expression and secretion of key pro-inflammatory mediators. Primary hPTECs were cultured as described above and treated with TGFβ1 (10 ng/mL)±danegaptide (100 nM) for 48 h.

[4] = TGFβ1 10 ng/mL + danegaptide 100 nM

T1 sequence (P17302 whole entry): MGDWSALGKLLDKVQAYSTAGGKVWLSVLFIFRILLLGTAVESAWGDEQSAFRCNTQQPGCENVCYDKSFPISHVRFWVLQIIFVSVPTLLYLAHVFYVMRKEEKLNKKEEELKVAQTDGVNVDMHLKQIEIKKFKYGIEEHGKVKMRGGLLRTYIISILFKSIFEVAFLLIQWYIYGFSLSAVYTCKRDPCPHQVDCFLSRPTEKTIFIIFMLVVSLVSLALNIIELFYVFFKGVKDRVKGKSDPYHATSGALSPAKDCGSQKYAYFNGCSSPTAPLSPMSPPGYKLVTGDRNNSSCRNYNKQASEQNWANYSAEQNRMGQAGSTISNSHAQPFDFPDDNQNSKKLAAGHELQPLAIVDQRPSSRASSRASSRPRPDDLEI

TGFβ1: Recombinant hTGFβ1 (Sigma); pro-fibrotic cytokine used to stimulate the cells [reference compound]
carboxyfluorescein dye uptake, of control ([1]; TGFβ1 10 ng/mL alone): 310.8±38.6% | Integrin Linked Kinase 1 (ILK1) expression, compared to control ([2]; TGFβ1 10 ng/mL alone): 378.9±16.8% | Matrix Metalloproteinase 3 (MMP3) expression, compared to control ([2]; TGFβ1 10 ng/mL alone): 185.3±19.6% | collagen I expression, compared to control ([2]; TGFβ1 10 ng/mL alone): 334.6±30.14% | collagen IV expression, compared to control ([2]; TGFβ1 10 ng/mL alone): 354.5±16.9% | fibronectin expression, compared to control ([2]; TGFβ1 10 ng/mL alone): 301.7±50.4% | laminin expression, compared to control ([2]; TGFβ1 10 ng/mL alone): 324.8±36.4% | Angiogenin in supernatant (% compared to control) ([3]; TGF-β1 10 ng/mL alone): 184 ± 13.2% | Cystatin C in supernatant (% compared to control) ([3]; TGF-β1 10 ng/mL alone): 169 ± 19.7% | DPPIV in supernatant (% compared to control) ([3]; TGF-β1 10 ng/mL alone): 222 ± 24.3% | ENA 78 in supernatant (% compared to control) ([3]; TGF-β1 10 ng/mL alone): 193 ± 17.7% | Endoglin in supernatant (% compared to control) ([3]; TGF-β1 10 ng/mL alone): 101 ± 10.6% | FGF7 in supernatant (% compared to control) ([3]; TGF-β1 10 ng/mL alone): 125 ± 11.3% | Flt 3 Ligand in supernatant (% compared to control) ([3]; TGF-β1 10 ng/mL alone): 179 ± 6.5% | G-CSF in supernatant (% compared to control) ([3]; TGF-β1 10 ng/mL alone): 171 ± 7.3% | GM-CSF in supernatant (% compared to control) ([3]; TGF-β1 10 ng/mL alone): 213 ± 33.3% | HGF in supernatant (% compared to control) ([3]; TGF-β1 10 ng/mL alone): 85 ± 15.8% | ICAM-1 in supernatant (% compared to control) ([3]; TGF-β1 10 ng/mL alone): 191 ± 13.0% | IFNg in supernatant (% compared to control) ([3]; TGF-β1 10 ng/mL alone): 123 ± 11.0% | IGFBP-2 in supernatant (% compared to control) ([3]; TGF-β1 10 ng/mL alone): 259 ± 49.6% | IGFBP-3 in supernatant (% compared to control) ([3]; TGF-β1 10 ng/mL alone): 147 ± 7.0% | IL1A in supernatant (% compared to control) ([3]; TGF-β1 10 ng/mL alone): 109 ± 14.8% | IL3 in supernatant (% compared to control) ([3]; TGF-β1 10 ng/mL alone): 127 ± 30.6% | IL8 in supernatant (% compared to control) ([3]; TGF-β1 10 ng/mL alone): 138 ± 48.4% | IL12 p70 in supernatant (% compared to control) ([3]; TGF-β1 10 ng/mL alone): 74 ± 11.5% | IL13 in supernatant (% compared to control) ([3]; TGF-β1 10 ng/mL alone): 95 ± 16.4% | Kallikrein 3 in supernatant (% compared to control) ([3]; TGF-β1 10 ng/mL alone): 75 ± 5.61% | LIF in supernatant (% compared to control) ([3]; TGF-β1 10 ng/mL alone): 249 ± 32.1% | MCP-1 in supernatant (% compared to control) ([3]; TGF-β1 10 ng/mL alone): 171 ± 14.3% | MMP-9 in supernatant (% compared to control) ([3]; TGF-β1 10 ng/mL alone): 41 ± 8.8% | PDGF-AA/BB in supernatant (% compared to control) ([3]; TGF-β1 10 ng/mL alone): 137 ± 9.7% | RAGE in supernatant (% compared to control) ([3]; TGF-β1 10 ng/mL alone): 170 ± 16.3% | RANTES in supernatant (% compared to control) ([3]; TGF-β1 10 ng/mL alone): 140 ± 8.6% | Serpin E1 in supernatant (% compared to control) ([3]; TGF-β1 10 ng/mL alone): 91 ± 4.7% | TFF3 in supernatant (% compared to control) ([3]; TGF-β1 10 ng/mL alone): 114 ± 22.2% | TNF-α in supernatant (% compared to control) ([3]; TGF-β1 10 ng/mL alone): 176 ± 5.5% | Thrombospondin-1 in supernatant (% compared to control) ([3]; TGF-β1 10 ng/mL alone): 120 ± 24.8% | VEGF in supernatant (% compared to control) ([3]; TGF-β1 10 ng/mL alone): 209 ± 43.3%

NCC(=O)N1C[C@H](NC(=O)c2ccccc2)C[C@H]1C(=O)O [danegaptide, (2S,4R)-1-(2-aminoacetyl)-4-benzamidopyrrolidine2-carboxylic acid]
carboxyfluorescein dye uptake, of control [1, 4]: 145±19.7% | Integrin Linked Kinase 1 (ILK1) expression, compared to control [2, 4]: 251.8±33% | Matrix Metalloproteinase 3 (MMP3) expression, compared to control [2, 4]: 147.1±12.2% | collagen I expression, compared to control [2, 4]: 180.7±27.3% | collagen IV expression, compared to control [2, 4]: 164.2±6.9% | fibronectin expression, compared to control [2, 4]: 161.3±4% | laminin expression, compared to control [2, 4]: 149±20.4% | Angiogenin in supernatant (% compared to control) ([3]; TGF-β1 10 ng/mL + DG 100 nM): 129 ± 14.7% | Cystatin C in supernatant (% compared to control) ([3]; TGF-β1 10 ng/mL + DG 100 nM): 88 ± 6.8% | DPPIV in supernatant (% compared to control) ([3]; TGF-β1 10 ng/mL + DG 100 nM): 179 ± 37.8% | ENA 78 in supernatant (% compared to control) ([3]; TGF-β1 10 ng/mL + DG 100 nM): 119 ± 3.9% | Endoglin in supernatant (% compared to control) ([3]; TGF-β1 10 ng/mL + DG 100 nM): 94 ± 5.8% | FGF7 in supernatant (% compared to control) ([3]; TGF-β1 10 ng/mL + DG 100 nM): 102 ± 16.5% | Flt 3 Ligand in supernatant (% compared to control) ([3]; TGF-β1 10 ng/mL + DG 100 nM): 103 ± 12.8% | G-CSF in supernatant (% compared to control) ([3]; TGF-β1 10 ng/mL + DG 100 nM): 117 ± 12.0% | GM-CSF in supernatant (% compared to control) ([3]; TGF-β1 10 ng/mL + DG 100 nM): 114 ± 3.8% | HGF in supernatant (% compared to control) ([3]; TGF-β1 10 ng/mL + DG 100 nM): 88 ± 13.7% | ICAM-1 in supernatant (% compared to control) ([3]; TGF-β1 10 ng/mL + DG 100 nM): 124 ± 16.6% | IFNg in supernatant (% compared to control) ([3]; TGF-β1 10 ng/mL + DG 100 nM): 90 ± 12.7% | IGFBP-2 in supernatant (% compared to control) ([3]; TGF-β1 10 ng/mL + DG 100 nM): 90 ± 6.4% | IGFBP-3 in supernatant (% compared to control) ([3]; TGF-β1 10 ng/mL + DG 100 nM): 84.7 ± 14.3% | IL1A in supernatant (% compared to control) ([3]; TGF-β1 10 ng/mL + DG 100 nM): 89 ± 21.5% | IL3 in supernatant (% compared to control) ([3]; TGF-β1 10 ng/mL + DG 100 nM): 107 ± 38.0% | IL8 in supernatant (% compared to control) ([3]; TGF-β1 10 ng/mL + DG 100 nM): 99 ± 26.4% | IL12 p70 in supernatant (% compared to control) ([3]; TGF-β1 10 ng/mL + DG 100 nM): 63 ± 15.9% | IL13 in supernatant (% compared to control) ([3]; TGF-β1 10 ng/mL + DG 100 nM): 62 ± 27.2% | Kallikrein 3 in supernatant (% compared to control) ([3]; TGF-β1 10 ng/mL + DG 100 nM): 74 ± 20.6% | LIF in supernatant (% compared to control) ([3]; TGF-β1 10 ng/mL + DG 100 nM): 134 ± 5.4% | MCP-1 in supernatant (% compared to control) ([3]; TGF-β1 10 ng/mL + DG 100 nM): 101 ± 6.2% | MMP-9 in supernatant (% compared to control) ([3]; TGF-β1 10 ng/mL + DG 100 nM): 80 ± 8.9% | PDGF-AA/BB in supernatant (% compared to control) ([3]; TGF-β1 10 ng/mL + DG 100 nM): 99 ± 6.3% | RAGE in supernatant (% compared to control) ([3]; TGF-β1 10 ng/mL + DG 100 nM): 99 ± 12.5% | RANTES in supernatant (% compared to control) ([3]; TGF-β1 10 ng/mL + DG 100 nM): 101 ± 12.1% | Serpin E1 in supernatant (% compared to control) ([3]; TGF-β1 10 ng/mL + DG 100 nM): 81 ± 42.8% | TFF3 in supernatant (% compared to control) ([3]; TGF-β1 10 ng/mL + DG 100 nM): 98 ± 17.5% | TNF-α in supernatant (% compared to control) ([3]; TGF-β1 10 ng/mL + DG 100 nM): 139 ± 6.1% | Thrombospondin-1 in supernatant (% compared to control) ([3]; TGF-β1 10 ng/mL + DG 100 nM): 115 ± 11.9% | VEGF in supernatant (% compared to control) ([3]; TGF-β1 10 ng/mL + DG 100 nM): 217 ± 49.3%
